Consider one compound from patent US12383629B2, “DNA-affibody-drug nanoparticles for inhibiting the metastasis of cancer cells overexpressing HER2” (Arizona Board of Regents on behalf of Arizona State …, priority 2019, dated 2025).

The test concerns HER2 receptor. Kind of test: Western blot assay for HER2 targeting. In kind it is cell-based. To be noted: BT474, 1 h; 1 μM DOX, 0.02 μM III, 1 μM Herceptin. (Immunoblotting shows a protein as a band on a membrane.)

Description: Western Blot Analysis—BT474 cells (50,000 cells/mL) were seeded in a 6-well cell culture plate and incubated in 1 mL of Gibco® RPMI 1640 medium supplemented with 10% fetal bovine serum (FBS) and 1% antibiotic-antimycotic mix antibiotic supplement at 37° C. for 24 h in a 5% CO2 atmosphere. […] The cells were washed with 1 mL 1×PBS buffer, and treated with 150 μL Cellstripper® non-enzymatic cell dissociation solution. After centrifugation at 500×g for 3 min, the cell pellets were washed with 150 μL 1×PBS buffer and treated with 60 μL, of 1×RIPA lysis buffer containing protease and phosphatase inhibitor cocktail (Sigma-Aldrich). After three cycle of freeze, thaw and sonication following by centrifugation at 15,000×g for 2 min at 4° C., the clear supernatant was collected.
Total protein concentration was measured using a BCA kit (Thermo Fisher Scientific). NuPAGE LDS Sample Buffer (4×) and NuPAGE Reducing Agent (10×) was added to the lysate which was denatured at 70° C. for 5 min. Equal amounts of lysates (25 μg) were loaded on a 4%-12% SDS-polyacrylamide Bis-Tris gels (Invitrogen) according to the manufacturer's recommendations and then proteins were transferred to nitrocellulose membranes. […]

Consider `COc1cccc2c1C(=O)c1c(O)c3c(c(O)c1C2=O)C[C@@](O)(C(=O)CO)C[C@@H]3O[C@H]1C[C@H](N)[C@H](O)[C@H](C)O1` [DOX, doxorubicin], for which the “level of phosphorylated HER2 (Y1221/1222)” value is “did not change”.
